Measurements reported in patent US8318781B2, “G-protein-conjugated receptor agonist” (Japan Science and Technology Agency, priority 2007, dated 2012).

Molecular target: T1, human GPR120 (hGPR120) (Homo sapiens, UniProt Q5NUL3)
T1 construct: expressed in transfected cells; doxycycline-inducible expression vector
T1 sequence (Q5NUL3 1-361): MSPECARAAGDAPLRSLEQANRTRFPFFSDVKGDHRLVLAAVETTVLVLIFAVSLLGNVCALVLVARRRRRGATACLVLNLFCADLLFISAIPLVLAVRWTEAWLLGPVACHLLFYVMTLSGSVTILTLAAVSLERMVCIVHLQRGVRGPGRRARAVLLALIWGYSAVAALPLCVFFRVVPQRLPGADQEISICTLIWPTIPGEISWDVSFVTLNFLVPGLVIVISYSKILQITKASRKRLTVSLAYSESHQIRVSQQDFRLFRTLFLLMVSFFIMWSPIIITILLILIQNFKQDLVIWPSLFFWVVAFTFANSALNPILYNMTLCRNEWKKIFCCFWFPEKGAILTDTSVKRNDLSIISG
Assay: Determination of intracellular Ca2+ concentration (FLIPR), cell line GPR120/Flp-in
Assay type: cell-based
Details: GPR120/Flp-in cells; for EC50: maximum fluorescence intensity vs ligand concentration, read-out: [Ca^2+]/GPR120/Flp-In pEC50 (converted); for [Ca^2+]/GPR120/Flp-In 10 μM (ratio vs. LA): relative fluorescence intensity vs LA at 10 μM

Compound | EC50 [nM] | [Ca^2+]/GPR120/Flp-In 10 μM (ratio vs. LA)
O=C(O)CCCc1ccc(OCCN(c2ccccc2)c2nccs2)cc1 [NCG46] | 1660 | 1.06
CN(C)c1ccc(N(CCOc2ccc(CCCC(=O)O)cc2)c2ccccn2)cc1 [NCG54] | 2400 | 0.92
